Measurements from PubChem BioAssay (NCI).
“And” between values parts separate entries of the source, which are not always exact repeats. Identical values can stand only once.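 Assay format: 96-well plates, 48-hour exposure. Here, GI50 denotes the concentration required for 50% inhibition of growth. TGI: concentration producing complete growth inhibition.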

Tests used:
Assay in all cases: NCI anticancer screen, dose series, 48 h
CAKI-1 renal = system: CAKI-1 renal
MDA-MB-435 = system: MDA-MB-435
NCI/ADR-RES ovarian = system: NCI/ADR-RES ovarian
A549 NSCLC = system: A549 NSCLC
HS 578T breast = system: HS 578T breast
MALME-3M melanoma = system: MALME-3M melanoma
SK-MEL-5 melanoma = system: SK-MEL-5 melanoma
NCI-H226 lung = system: NCI-H226 lung
HCC-2998 colon = system: HCC-2998 colon
SNB-75 CNS = system: SNB-75 CNS

Compound | TGI (CAKI-1 renal) | TGI (MDA-MB-435) | TGI (NCI/ADR-RES ovarian) | TGI (A549 NSCLC) | TGI (HS 578T breast) | TGI (MALME-3M melanoma) | TGI (SK-MEL-5 melanoma) | TGI (NCI-H226 lung) | TGI (HCC-2998 colon) | TGI (SNB-75 CNS) | GI50 (MDA-MB-435) | GI50 (HS 578T breast) | GI50 (MALME-3M melanoma) | GI50 (SK-MEL-5 melanoma) | GI50 (A549 NSCLC) | GI50 (SNB-75 CNS)
CN(C)CC1CCC/C(=C\c2ccc(OC(=O)/C=C/c3ccc(Cl)c(Cl)c3)cc2)C1=O (centres undefined) | 5.81 µM | > 60.1 µM | 18.5 µM | 24.4 µM | > 85.3 µM | 25.4 µM | 12.2 µM | 4.56 µM | 10.1 µM | 68.5 µM |  |  |  |  |  | 
COCC12CCC(OC)C34C5CC6(O)C(OC)CC(OC(C)=O)(C5C6OC(=O)c5ccccc5)C(C(OC)C13)C4N(C)C2 (centres undefined) | > 100 µM | > 100 µM | > 100 µM | > 100 µM | > 100 µM | > 100 µM | > 100 µM | > 100 µM | > 100 µM |  |  |  |  |  |  | 
COc1cccc(-c2nccc3c(OCc4ccccc4)c(OC)c(OC)cc23)c1 |  |  |  | > 100 µM |  | > 100 µM | > 100 µM | > 100 µM | > 100 µM | > 100 µM |  |  |  |  |  | 
COc1cc(CCN(C)C)cc(OC)c1OC | > 100 µM | > 100 µM | > 100 µM | > 100 µM | > 100 µM |  | > 100 µM | > 100 µM | > 100 µM | > 100 µM |  |  |  |  |  | 
CCOC(=O)C(C)(C)Oc1ccc2c(-c3ccc(Cl)cc3)c(-c3ccc(Cl)cc3)c(=O)oc2c1 |  |  |  | > 100 µM |  | > 100 µM | > 100 µM | > 100 µM | > 100 µM | > 100 µM |  |  |  |  |  | 
O=C1/C(=C/c2ccccc2)NC(=S)N1CN1CCCCC1 |  | > 100 µM | > 100 µM | > 100 µM | > 100 µM |  | > 100 µM | > 100 µM |  | > 100 µM |  |  |  |  |  | 
O=C(C(Cl)=C(N1CCCCC1)N1CCCCC1)C(Cl)Cl | > 100 µM | > 100 µM | > 100 µM | > 100 µM | > 100 µM | > 100 µM | > 100 µM | > 100 µM | > 100 µM |  |  |  |  |  |  | 
Cc1c2ccccc2c(C)n2c1nc1ccccc12 |  | 19.1 µM | 39.5 µM | 23.2 µM | 54.5 µM | 23.5 µM | 16 µM | 37.8 µM | 22.7 µM | 27.7 µM |  |  |  |  |  | 
COC([C@@H](OC(=O)c1ccccc1)[C@H](OC(=O)c1ccccc1)C(O)COC(=O)c1ccccc1)n1cc(C)c(=O)[nH]c1=O (some centres undefined) |  | > 100 µM | > 100 µM | > 100 µM | > 100 µM | 91.7 µM | 24 µM | 74.5 µM |  | 73.8 µM |  |  |  |  |  | 
COc1ccc2[nH]c(C(=O)N3CC(CCl)c4c3cc(N)c3ccccc43)cc2c1 (centres undefined) | < 0.01 µM |  | < 0.0172 µM |  |  |  | < 0.0112 µM | < 0.0225 µM | < 0.01 µM |  |  |  |  |  |  | 
CCOC(=O)C(=O)CC(=O)C1=C(c2ccccc2OC)CC(c2cccs2)=CC1=O | > 100 µM | > 100 µM | > 100 µM | > 100 µM | > 100 µM | > 100 µM | > 100 µM | > 100 µM |  | 49.8 µM |  |  |  |  |  | 
CC(=O)OC(C)c1cc2c(s1)C(=O)c1c(C(C)OC(C)=O)csc1C2=O (centres undefined) |  | 0.34 µM | 3.62 µM | 4.52 µM | 7.59 µM | 0.412 µM | 1.83 µM | 3.62 µM | 3.1 µM | 4.43 µM | 0.185 µM | 2.08 µM | 0.186 µM | 0.631 µM |  | 
CNC(=S)NNc1ncnc2c1ncn2-c1ccc(C)cc1 | > 100 µM | > 100 µM | > 100 µM | > 100 µM | > 100 µM | > 100 µM | > 100 µM | > 100 µM |  |  |  |  |  |  |  | 
c1csc(-c2ccsc2-c2ccsc2)c1 | > 100 µM | > 100 µM | > 100 µM | > 100 µM | > 100 µM |  | > 100 µM |  | > 100 µM | > 100 µM |  |  |  |  |  | 
CCCCn1c2ccccc2c2ccc3c(c21)C(=O)C=CC3=O | > 100 µM |  |  | > 100 µM |  | > 100 µM | > 100 µM | > 100 µM | > 100 µM | 0.638 µM |  |  |  |  |  | 
O=C(CSc1nnc(-c2ccc(N=Cc3ccc(Cl)cc3)cc2)o1)Nc1ccc([N+](=O)[O-])cc1 |  |  |  | > 100 µM |  | > 100 µM | 67.9 µM | 48.6 µM |  | 58.1 µM |  |  |  |  |  | 
COC12CCC(C(C(=O)c3ccccc3)=C1C(=O)c1ccccc1)C(O)C2 (centres undefined) | > 100 µM |  |  | > 100 µM |  | > 100 µM | > 100 µM | > 100 µM | > 100 µM | > 100 µM |  |  |  |  |  | 
CC(=O)OC(C)(C)CCC(=O)[C@](C)(O)[C@H]1[C@H](O)C[C@@]2(C)[C@@H]3CC=C4C(C)=C(OC5OC(CO)C(O)C(O)C5O)C(=O)C[C@@H]4[C@]3(C)C(=O)C[C@]12C (some centres undefined) | > 100 µM | > 100 µM | > 100 µM | > 100 µM |  | > 100 µM | > 100 µM | > 100 µM | > 100 µM | > 100 µM |  |  |  |  |  | 
CC(=O)NC1(C(=O)N[C@@H](Cc2ccccc2)C(=O)NC2CCCCC2)Cc2ccc3ccccc3c2-c2c(ccc3ccccc23)C1 | > 100 µM | > 100 µM | > 100 µM | > 100 µM | > 100 µM | > 100 µM | 12.1 µM and 23.7 µM |  | > 100 µM and 89.5 µM | > 100 µM and 36.6 µM | 3.74 µM and 9.85 µM |  | 5 µM and 19.4 µM | 2.9 µM and 6.71 µM | 2.53 µM and 5.95 µM | 7.84 µM and 1.43 µM
O=C(N/N=C(/COc1ccccc1Cl)N=Cc1ccncc1)c1ccncc1 | > 100 µM | > 100 µM | > 100 µM | > 100 µM | > 100 µM | > 100 µM |  |  | > 100 µM | 98.7 µM |  |  |  |  |  | 
CCCCCCCCCCCCCCCCCC(=O)Nc1ccn(C2CCC(COP(=O)(O)O)O2)c(=O)n1 (centres undefined) | > 100 µM | > 100 µM | > 100 µM | > 100 µM | > 100 µM |  | > 100 µM | > 100 µM | > 100 µM | > 100 µM |  |  |  |  |  | 
Cc1c(-c2nnc(-c3ccccc3)o2)c(=O)n(-c2ccccc2)n1C |  |  |  | > 100 µM |  | > 100 µM |  | > 100 µM | > 100 µM | > 100 µM |  |  |  |  |  | 
COc1ccc2c(c1)CCN1CCCc3ccccc3C21 (centres undefined) | > 100 µM | 52.5 µM | > 100 µM | > 100 µM | > 100 µM |  | > 100 µM | > 100 µM | 80.8 µM | 78.5 µM |  |  |  |  |  | 
